Experimental data as given in PubChem BioAssay (NCI).
Several values for one entry are separate records, joined by “and”; a condition that tells them apart may be missing. Identical values can stand only once.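 48-hour exposure; five concentrations; linearly interpolated endpoints. GI50 is the concentration that inhibits growth by half. TGI denotes the concentration required for complete inhibition of growth.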

Assays:
Test in all cases: DTP human tumour cell line panel, 48 h
[1] = tested on: SK-OV-3 ovarian
[2] = tested on: HS 578T breast
[3] = tested on: NCI-H460 lung
[4] = tested on: SK-MEL-2 melanoma
[5] = tested on: OVCAR-8 ovarian
[6] = tested on: IGROV1 ovarian
[7] = tested on: SN12C renal
[8] = tested on: NCI/ADR-RES ovarian
[9] = tested on: K-562 leukemia
[10] = tested on: EKVX NSCLC

Row | Compound | GI50 [1] | TGI [1] | GI50 [2] | TGI [2] | GI50 [3] | TGI [3] | GI50 [4] | TGI [4] | GI50 [5] | TGI [5] | GI50 [6] | TGI [6] | GI50 [7] | TGI [7] | GI50 [8] | TGI [8] | GI50 [9] | TGI [9] | GI50 [10] | TGI [10]
1 | O=C(NNc1ccc(F)cc1)C1CCC(CNS(=O)(=O)c2ccc(Cl)c(Cl)c2)CC1 (stereo not given) | 28.9 µM | > 50 µM | 10.5 µM | 42.4 µM | 3.18 µM | > 50 µM | > 50 µM | > 50 µM | 8.79 µM | 35.6 µM | 6.79 µM | > 50 µM | 7.97 µM | > 50 µM | 8.79 µM | 31.5 µM | 1.71 µM | > 50 µM | 7.98 µM | > 50 µM
2 | CCCCCCC/C=C/[C@H]1O[C@]2(O)C(=O)C=C3C[C@@H](O[C@@H]4O[C@H](CO)[C@@H](O)C(O)[C@@H]4O)C[C@@H]3[C@H]2C=C1C (stereo not given in full) | 5.95 µM | 16.4 µM | 5.5 µM | 28.3 µM | 6.61 µM | 24.3 µM | 3.46 µM | 9.34 µM | 1.01 µM | 3.92 µM | 2.77 µM | 15.2 µM | 2.8 µM | 10.7 µM | 1.26 µM | 14 µM | 1.04 µM | 3.55 µM | 4.82 µM | 11 µM
3 | COc1cc2nc(-c3ccc(Cl)cc3)cc(OCCCN3CCCC3)c2cc1OC | 2.42 µM | 15.3 µM | 1.89 µM | 6.68 µM | 0.823 µM | 11.2 µM | 2.16 µM | 5.22 µM | 1.19 µM | 16.1 µM | 0.881 µM | 11.8 µM | 0.914 µM | 13.7 µM | 0.683 µM | 11 µM | 1.06 µM | 4.68 µM | 1.21 µM | 12 µM
4 | COc1ccc2c(Cc3c4ccccc4cc4ccccc34)cncc2c1O |  | > 40.5 µM |  | > 100 µM |  | 3.94 µM |  | 17.5 µM |  | 5.74 µM |  | 11 µM |  | > 63.9 µM |  | 9.17 µM |  | 12.8 µM |  | 50.1 µM
5 | c1cc(CSSCc2ccncc2)ccn1 |  | > 100 µM |  | 76 µM |  | > 84.9 µM |  | 82.1 µM |  | > 100 µM |  | > 100 µM |  | > 100 µM |  | > 85.3 µM |  | > 100 µM |  | > 100 µM
6 | C=C1CC[C@@H]2[C@](C)(COC(C)=O)[C@H](OC(C)=O)CC[C@@]2(C)[C@@H]1CC(Nc1ccc(S(=O)(=O)Nc2cc(C)on2)cc1)C1=CCOC1=O (stereo not given in full) | 11 µM | 23.1 µM | 3.92 µM | 26.7 µM | 2.35 µM | 5.7 µM | 2.04 µM | 4.4 µM | 1.88 µM | 4.3 µM | 2.36 µM | 6.51 µM | 1.73 µM | 4.52 µM | 2.41 µM | 12 µM | 1.57 µM | 8.42 µM | 11 µM | 25.9 µM
7 | CC[C@@H](C(=O)[C@H](C)[C@H](O)[C@@H](C)[C@H]1O[C@H]([C@@H](CC)C(=O)O)CC[C@H]1C)C1O[C@]2(C=C[C@@H](O)[C@]3(CC[C@@](C)([C@H]4CC[C@](O)(CC)[C@H](C)O4)O3)O2)[C@H](C)C[C@@H]1C (stereo not given in full) | 4.1 µM | 51.1 µM | 0.239 µM | 18.4 µM | 0.4 µM | 10.3 µM | 1.27 µM | 4.5 µM | 1.6 µM | > 100 µM | 2.07 µM | > 100 µM | 0.159 µM | 16.4 µM | 0.562 µM | > 68.2 µM | 0.223 µM | 7.06 µM | 0.362 µM | 17.5 µM
8 | C/C(=N\NC(=S)N1CCN(C2CCCCCC2)CC1)c1ccccn1 |  | 2.96 µM |  | 4.63 µM |  | 1.45 µM | 2.02 µM | 9.66 µM and 3.16 µM | < 0.001 µM | 7.94 µM and 2.63 µM | < 0.001 µM | 3.7 µM | 2.02 µM | 2.96 µM |  | 0.676 µM | < 0.001 µM | 1.67 µM and 0.97 µM |  | 2.86 µM
